Source: article PMC7351026, “Serum Half-Lives for Short- and Long-Chain Perfluoroalkyl Acids after Ceasing Exposure from Drinking Water Contaminated by Firefighting Foam” (Environmental Health Perspectives, 2020)
Where “and” joins values, the source holds several entries; their conditions need not be identical. Equal values may be shown once. Read-outs that look alike come from different tables or passages of the source.

Tests used:
[1] = cited from earlier work
[2] = Population average serum elimination rate and half-life (linear mixed model, one compartment, first-order); conditions: for half-life: human, serum, oral, Half-life (95% CI)
Procedure, shortened: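 Log-transformed serum PFAS fitted with a linear mixed model (random intercept only; age and sex as covariates), assuming one-compartment first-order elimination. Time counted in days from clean-water supply to first sampling. k is the negative average slope; half-life = ln2/k; sensitivity run after subtracting reference-population median background.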

[3] = PFAS levels in urine samples of airport employees, specific-gravity adjusted (LC/MS/MS); type: in vivo, human
Procedure, shortened: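 50 μL urine mixed with methanol and acetonitrile containing isotope-labelled internal standards, shaken 30 min, centrifuged, then analysed by LC/MS/MS in negative ion mode. Concentrations specific-gravity adjusted; urine/serum ratios from paired samples of 17 employees, averaged over repeated samplings per employee.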

[4] = Individual serum elimination rate and half-life (linear regression per employee); conditions: individual estimate; for half-life: human, serum, oral, HL (half-life)
Procedure, shortened: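 Log-transformed serum PFAS concentrations regressed on days since clean bottled water supply, per employee, assuming one-compartment first-order elimination. Individual k taken as −β (negative slope); half-life as ln2/k for each PFAS. No half-life calculated when β was positive.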

[5] = Serum/water ratio; type: in vivo, human; conditions: median serum level of first samples (26 employees) divided by airport drinking-water level
Description: The ratio of serum and water concentration for each PFAS (serum/water ratio) was calculated based on median serum level in the first serum sample obtained from all 26 airport employees divided by the drinking-water concentration. This ratio is an indicator of PFAS accumulation in body.

[6] = Urine/serum ratio in paired samples; type: in vivo, human; conditions: mean of four paired samplings per subject, 17 airport employees
Description: Urinary PFAS concentrations were specific-gravity adjusted. The ratio of urine and serum concentration for each PFAS (urine/serum ratio) at each sampling was calculated based on PFAS concentrations in paired serum and urine samples from 17 employees. Then the personal average urine/serum ratio was calculated using the mean value of repeated samplings for each employee.

[7] = population average, model with original serum levels, age and sex as covariates
[8] = population average, model with serum levels after subtraction of background exposure (sensitivity analysis)
[9] = 2nd sampling (October 2018), count 17
[10] = 3rd sampling (November, 2018), count 16
[11] = 4th sampling (December 2018), count 14
[12] = 5th sampling (January 2019), count 12

Question: Which Average half-life ([1]; 26 retired fluorochemical production workers, 5-y follow-up, ref Olsen et al. 2007) does the source give for `O=C(O)C(F)(F)C(F)(F)C(F)(F)C(F)(F)C(F)(F)C(F)(F)C(F)(F)F` [PFOA, perfluorooctanoic acid] here?
Answer: 3.8 y

Question: What about the half-life ([1]; 138 Germans, 2-y follow-up, ref Brede et al. 2010) of the same compound?
Answer: 3.3 y

Question: What about the half-life ([1]; 200 Americans, 1-y follow-up, ref Bartell et al. 2010) of the same compound?
Answer: 2.3 y

Question: And the Average half-life ([1]; general Swedish population (Ronneby, 106 Swedes) with high exposure through drinking water, 2 y follow-up from 6 months after clean water, ref Li et al. 2018)?
Answer: 2.7 y

Question: And the half-life [2, 7]?
Answer: 646 days

Question: And the half-life [2, 8]?
Answer: 541 days

Question: What about the Average serum half-life ([2]; population average, linear mixed model with original serum levels, 17 airport employees after end of drinking-water exposure) of the same compound?
Answer: 1.77 y

Question: And the “Constant elimination rate (95% CI)” value [2, 7]?
Answer: 0.39 (0.3, 0.49) yearly

Question: What about the “Constant elimination rate (95% CI)” value [2, 8] of the same compound?
Answer: 0.47 (0.35, 0.58) yearly

Question: And the “Reduction of half-life estimation after subtraction of background levels” value ([2]; sensitivity analysis vs model with original serum levels)?
Answer: 16%

Question: What about the “Specific gravity adjusted urinary level, 25 percentile” value [3, 9] of the same compound?
Answer: 0.02 ng/mL

Question: And the “Specific gravity adjusted urinary level, 75 percentile” value [3, 9]?
Answer: 0.04 ng/mL

Question: And the “Specific gravity adjusted urinary level, Max” value [3, 9]?
Answer: 0.07 ng/mL

Question: And the “Specific gravity adjusted urinary level, Median” value [3, 9]?
Answer: 0.03 ng/mL

Question: And the “Specific gravity adjusted urinary level, Min” value [3, 9]?
Answer: 0.01 ng/mL

Question: And the “Specific gravity adjusted urinary level, 25 percentile” value [3, 10]?
Answer: 0.02 ng/mL

Question: And the “Specific gravity adjusted urinary level, 75 percentile” value [3, 10]?
Answer: 0.04 ng/mL

Question: What about the “Specific gravity adjusted urinary level, Max” value [3, 10] of the same compound?
Answer: 0.07 ng/mL

Question: What about the “Specific gravity adjusted urinary level, Median” value [3, 10] of the same compound?
Answer: 0.03 ng/mL

Question: And the “Specific gravity adjusted urinary level, Min” value [3, 10]?
Answer: 0.01 ng/mL

Question: And the “Specific gravity adjusted urinary level, 25 percentile” value [3, 11]?
Answer: 0.02 ng/mL

Question: What about the “Specific gravity adjusted urinary level, 75 percentile” value [3, 11] of the same compound?
Answer: 0.05 ng/mL

Question: What about the “Specific gravity adjusted urinary level, Max” value [3, 11] of the same compound?
Answer: 0.13 ng/mL

Question: And the “Specific gravity adjusted urinary level, Median” value [3, 11]?
Answer: 0.04 ng/mL

Question: What about the “Specific gravity adjusted urinary level, Min” value [3, 11] of the same compound?
Answer: 0.01 ng/mL

Question: And the “Specific gravity adjusted urinary level, 25 percentile” value [3, 12]?
Answer: 0.03 ng/mL

Question: What about the “Specific gravity adjusted urinary level, 75 percentile” value [3, 12] of the same compound?
Answer: 0.04 ng/mL

Question: And the “Specific gravity adjusted urinary level, Max” value [3, 12]?
Answer: 0.07 ng/mL

Question: What about the “Specific gravity adjusted urinary level, Median” value [3, 12] of the same compound?
Answer: 0.03 ng/mL

Question: And the “Specific gravity adjusted urinary level, Min” value [3, 12]?
Answer: 0.02 ng/mL

Question: And the “Specific gravity adjusted urine level, median (range)” value ([3]; second to fifth samplings, 17 airport employees)?
Answer: 0.031 (0.010–0.13) ng/mL

Question: And the half-life ([4]; subject 1, 5 samples)?
Answer: 877 days

Question: What about the half-life ([4]; subject 2, 5 samples) of the same compound?
Answer: 1060 days

Question: And the half-life ([4]; subject 3, 5 samples)?
Answer: 438 days

Question: What about the half-life ([4]; subject 4, 5 samples) of the same compound?
Answer: 840 days

Question: And the half-life ([4]; subject 5, 5 samples)?
Answer: 804 days

Question: And the half-life ([4]; subject 6, 4 samples)?
Answer: 1060 days

Question: What about the half-life ([4]; subject 7, 5 samples) of the same compound?
Answer: 584 days

Question: And the half-life ([4]; subject 9, 5 samples)?
Answer: 694 days

Question: What about the half-life ([4]; subject 10, 5 samples) of the same compound?
Answer: 767 days

Question: And the half-life ([4]; subject 11, 5 samples)?
Answer: 548 days

Question: What about the half-life ([4]; subject 12, 5 samples) of the same compound?
Answer: 365 days

Question: And the half-life ([4]; subject 13, 5 samples)?
Answer: 584 days

Question: What about the half-life ([4]; subject 14, 4 samples) of the same compound?
Answer: 584 days

Question: And the half-life ([4]; subject 15, 5 samples)?
Answer: 402 days

Question: And the half-life ([4]; subject 16, 5 samples)?
Answer: 986 days

Question: And the half-life ([4]; subject 17, 5 samples)?
Answer: 438 days

Question: What about the Elimination rate ([4]; subject 1, 5 samples) of the same compound?
Answer: 0.3 yearly

Question: What about the Elimination rate ([4]; subject 2, 5 samples) of the same compound?
Answer: 0.2 yearly

Question: What about the Elimination rate ([4]; subject 3, 5 samples) of the same compound?
Answer: 0.6 yearly

Question: What about the Elimination rate ([4]; subject 4, 5 samples) of the same compound?
Answer: 0.3 yearly

Question: And the Elimination rate ([4]; subject 5, 5 samples)?
Answer: 0.3 yearly

Question: What about the Elimination rate ([4]; subject 6, 4 samples) of the same compound?
Answer: 0.2 yearly

Question: What about the Elimination rate ([4]; subject 7, 5 samples) of the same compound?
Answer: 0.4 yearly

Question: What about the Elimination rate ([4]; subject 8, 5 samples) of the same compound?
Answer: 0.007 yearly

Question: And the Elimination rate ([4]; subject 9, 5 samples)?
Answer: 0.4 yearly

Question: And the Elimination rate ([4]; subject 10, 5 samples)?
Answer: 0.3 yearly

Question: And the Elimination rate ([4]; subject 11, 5 samples)?
Answer: 0.5 yearly

Question: And the Elimination rate ([4]; subject 12, 5 samples)?
Answer: 0.7 yearly

Question: What about the Elimination rate ([4]; subject 13, 5 samples) of the same compound?
Answer: 0.4 yearly

Question: And the Elimination rate ([4]; subject 14, 4 samples)?
Answer: 0.4 yearly

Question: What about the Elimination rate ([4]; subject 15, 5 samples) of the same compound?
Answer: 0.6 yearly

Question: What about the Elimination rate ([4]; subject 16, 5 samples) of the same compound?
Answer: 0.3 yearly

Question: And the Elimination rate ([4]; subject 17, 5 samples)?
Answer: 0.6 yearly

Question: What about the Serum/water ratio [5] of the same compound?
Answer: 30.3

Question: What about the “Personal average urine/serum ratio, median (range)” value [6] of the same compound?
Answer: 0.0032 and 0.0032 (0.00066–0.0067)
